# Test results: paper PMC8443589, “Modelling human liver fibrosis in the context of non-alcoholic steatohepatitis using a microphysiological system” (Communications Biology, 2021)
# Tests used:
# [1] = tested on: liver MPS NASH model (PHH, KC and HSC co-cultures); test: Cue study: secreted cytokines and chemokines (Luminex) with varying NPC number and added cues (Fig 5a, 5b); format: cell-based, human; conditions: for EGF relative expression (z-transformation) / Eotaxin relative expression (z-transformation) / FGF-2 relative expression (z-transformation) / Fit-3L relative expression (z-transformation) / Fractalkine relative expression (z-transformation) / G-CSF relative expression (z-transformation) / GM-CSF relative expression (z-transformation) / GRO relative expression (z-transformation) / IFN-a2 relative expression (z-transformation) / IL-1RA relative expression (z-transformation) / IL-4 relative expression (z-transformation) / IL-6 relative expression (z-transformation) / IL-7 relative expression (z-transformation) / IL-8 relative expression (z-transformation) / IL-15 relative expression (z-transformation) / IP-10 relative expression (z-transformation) / MCP-1 relative expression (z-transformation) / MCP-3 relative expression (z-transformation) / MDC relative expression (z-transformation) / MIP-1a relative expression (z-transformation) / MIP-1b relative expression (z-transformation) / TNFa relative expression (z-transformation) / VEGF relative expression (z-transformation): Fat media + cue
# Text: There is only limited understanding of the pathogenic drivers of NASH and their interaction, principally due to a lack of translational models that are amenable to detailed molecular analysis[2],[34]. Here, a systems biology ‘cue-signal-analysis’ paradigm[35],[36] was utilised to produce large factorial datasets to enable the identification of molecular pathways of importance. […] To create varying set ups of the NASH microtissues we created hepatocyte microtissues in the MPS with high numbers of NPC (60,000 KC and HSC—equivalent to 10% of microtissue population) and low numbers of NPCs (6000 KC and HSC—equivalent to 1% of microtissue), representing physiological and non-physiological cell ratios respectively. Next, we took these different microtissues and cultured them in media with or without FFA. Finally, we supplemented the media with lipopolysaccharide (LPS), TGFβ, fructose or cholesterol either as single ‘cues’, in pairs or all together (Fig. 4a). ‘Cues’ were selected for clinical association with NASH. LPS, is a pleiotropic inflammatory molecule, it is proposed to reach the liver via the hepatic portal vein after release from the gastrointestinal tract, contributing to disease progression[37],[38]. TGFβ has been extensively studied in relation to fibrosis due to its regulation of genes controlling collagen and matrix-modifying enzymes. Fructose is a key substrate for de-novo lipogenesis, a process that has been identified as a key event in lipid accumulation within NAFLD patients. Finally, cholesterol accumulation has also been linked to NASH disease aetiology.
# Assessment of gene expression changes was supplemented by assessment of the secretome produced by NASH microtissues in the MPS after exposure to the various cues. Increased pro-inflammatory cytokine secretion is a defining characteristic in NASH patients, so we conducted a Luminex cytokine array covering 42 different biomarkers, cytokines and chemokines secreted into the culture media of the different microtissues at multiple time points. […]
# [2] = tested on: liver MPS NASH model (PHH, KC and HSC co-cultures); test: Cue study: pro-fibrotic biomarkers TIMP-1, pro-collagen 1, fibronectin (Fig 5c); format: cell-based, human; conditions: fat medium + cue
# Text: Assessment of gene expression changes was supplemented by assessment of the secretome produced by NASH microtissues in the MPS after exposure to the various cues. Increased pro-inflammatory cytokine secretion is a defining characteristic in NASH patients, so we conducted a Luminex cytokine array covering 42 different biomarkers, cytokines and chemokines secreted into the culture media of the different microtissues at multiple time points. We consistently detected 27 out of the 42 biomarkers and observed that there was differential expression of cytokines and chemokines driven by the different cues applied to the micro-tissue (Fig. 5a, b). The LPS cue and the presence of higher NPC numbers were responsible for driving the largest increase in cytokine and chemokine release, with the largest increases in cytokines measured on day 14 (Fig. 5b). […] Similarly, to the cytokine production, these changes were not further enhanced by combining cues, as all the cue combinations containing TGFβ had the highest expression (Supp. Fig. 17c).
# Fig. 5 Systems biology interrogation of liver MPS NASH model to determine physiologically relevant cues that promote soluble biomarker changes to mimic advanced NASH disease state. PHH, KC and HSC co-cultures were cultured in the MPS platform under a variety of conditions for 14 days to test number of NPCs, presence of fat, fructose, cholesterol, LPS and TGFβ for effects on the soluble biomarker profile of the liver MPS NASH model. Expression of biomarkers, cytokines and chemokines were compared, all concentrations were normalised by Z-transformation to allow comparison and shown relative to mean for each marker (white = not detected). a Cytokine expression compared with varying levels of NPCs; b for the high NPC group in the presence of additional cues; c Expression of pro-fibrotic biomarkers with varying NPC content and with additional varying cues in high NPC condition (additional data in Supp. Fig. 17). d Graphical summary of the changes that occur in the NASH model in the presence of Fat and Fat + TGFβ. All data were generated from a minimum of three independent replicate samples per condition.
# The MPS LC12 plates consists of 12 individual bioreactors that contain pneumatically driven micro-pumps to recirculate cell culture medium through a collagen-coated scaffold. Cells were cultured using the protocol previously described[20],[21], but briefly, PHH were seeded at a density of 6 × 10^5 viable cells per well on the LC12 plates with each NPC population (KC and/or HSC) at a density of 6 × 10^4 viable cells per well. Each well contained a final volume of 1.6 mL of medium per well and maintained under a flow rate of 1.0 µL/s. Cells were seeded in Williams E medium containing primary hepatocyte thawing and plating supplements (Life Technologies, USA) and cultured initially under downward flow for 8 h before the flow was automatically reversed to upward flow for the next 16 h of culture. Microtissues were then cultured in either HEP-Lean or HEP-Fat medium, both media’s are proprietary to CN Bio Innovations Ltd. The HEP-Fat medium is a derivative of the HEP-LEAN medium and contains a mixture of saturated and unsaturated FFAs, as well as physiologically relevant quantities of insulin and sugars. Complete media changes were performed on all wells every 48–72 h. For certain experiments, the media was supplemented with additional additives from day 4 onwards: 1 ng/ml LPS (lipopolysaccharides from Escherichia coli O111:B4) (Sigma Aldrich, UK), 1 ng/ml recombinant TGF beta 1 protein (Abcam, UK); 500 µM Fructose (Sigma Aldrich, UK), 50 µg/ml Cholesterol (Sigma Aldrich, UK). […]
structure (smiles),measurement,setting,value
O=C(CO)[C@@H](O)[C@H](O)[C@H](O)CO [Fructose],EGF relative expression (z-transformation),[1]; Day 6,-1.038
same,Eotaxin relative expression (z-transformation),[1]; Day 6,-0.782
same,FGF-2 relative expression (z-transformation),[1]; Day 6,-1.187
same,Fit-3L relative expression (z-transformation),[1]; Day 6,-0.2857
same,Fractalkine relative expression (z-transformation),[1]; Day 6,-0.2691
same,G-CSF relative expression (z-transformation),[1]; Day 6,-0.36
same,GM-CSF relative expression (z-transformation),[1]; Day 6,-0.4175
same,GRO relative expression (z-transformation),[1]; Day 6,-0.4254
same,IFN-a2 relative expression (z-transformation),[1]; Day 6,0.2777
same,IL-1RA relative expression (z-transformation),[1]; Day 6,0.2038
same,IL-4 relative expression (z-transformation),[1]; Day 6,-1.323
same,IL-6 relative expression (z-transformation),[1]; Day 6,-0.4543
same,IL-7 relative expression (z-transformation),[1]; Day 6,-0.8373
same,IL-8 relative expression (z-transformation),[1]; Day 6,0.2742
same,IL-15 relative expression (z-transformation),[1]; Day 6,-0.4814
same,IP-10 relative expression (z-transformation),[1]; Day 6,-0.2708
same,MCP-1 relative expression (z-transformation),[1]; Day 6,0.3757
same,MCP-3 relative expression (z-transformation),[1]; Day 6,-0.2673
same,MDC relative expression (z-transformation),[1]; Day 6,1.214
same,MIP-1a relative expression (z-transformation),[1]; Day 6,0.03503
same,MIP-1b relative expression (z-transformation),[1]; Day 6,-0.1641
same,TNFa relative expression (z-transformation),[1]; Day 6,-0.2082
same,VEGF relative expression (z-transformation),[1]; Day 6,1.537
same,EGF relative expression (z-transformation),[1]; Day 11,-0.1015
same,Eotaxin relative expression (z-transformation),[1]; Day 11,0.09562
same,FGF-2 relative expression (z-transformation),[1]; Day 11,-0.4563
same,Fit-3L relative expression (z-transformation),[1]; Day 11,1.324
same,Fractalkine relative expression (z-transformation),[1]; Day 11,0.9874
same,G-CSF relative expression (z-transformation),[1]; Day 11,-1.298
same,GM-CSF relative expression (z-transformation),[1]; Day 11,-0.6
same,GRO relative expression (z-transformation),[1]; Day 11,-0.3142
same,IFN-a2 relative expression (z-transformation),[1]; Day 11,0.6908
same,IL-1RA relative expression (z-transformation),[1]; Day 11,0.879
same,IL-4 relative expression (z-transformation),[1]; Day 11,-0.3331
same,IL-6 relative expression (z-transformation),[1]; Day 11,-0.2984
same,IL-7 relative expression (z-transformation),[1]; Day 11,-0.3548
same,IL-8 relative expression (z-transformation),[1]; Day 11,-0.6705
same,IL-15 relative expression (z-transformation),[1]; Day 11,0.3314
same,IP-10 relative expression (z-transformation),[1]; Day 11,-0.257
same,MCP-1 relative expression (z-transformation),[1]; Day 11,0.4252
same,MCP-3 relative expression (z-transformation),[1]; Day 11,-0.08763
same,MDC relative expression (z-transformation),[1]; Day 11,0.03858
same,MIP-1a relative expression (z-transformation),[1]; Day 11,-0.4174
same,MIP-1b relative expression (z-transformation),[1]; Day 11,0.1119
same,TNFa relative expression (z-transformation),[1]; Day 11,-0.3492
same,VEGF relative expression (z-transformation),[1]; Day 11,-0.07553
same,EGF relative expression (z-transformation),[1]; Day 14,-0.09066
same,Eotaxin relative expression (z-transformation),[1]; Day 14,1.581
same,FGF-2 relative expression (z-transformation),[1]; Day 14,0.5869
same,Fit-3L relative expression (z-transformation),[1]; Day 14,1.267
same,Fractalkine relative expression (z-transformation),[1]; Day 14,0.9131
same,G-CSF relative expression (z-transformation),[1]; Day 14,0.4426
same,GM-CSF relative expression (z-transformation),[1]; Day 14,-0.06657
same,GRO relative expression (z-transformation),[1]; Day 14,0.04245
same,IFN-a2 relative expression (z-transformation),[1]; Day 14,2.403
same,IL-1RA relative expression (z-transformation),[1]; Day 14,1.114
same,IL-4 relative expression (z-transformation),[1]; Day 14,0.7104
same,IL-6 relative expression (z-transformation),[1]; Day 14,0.4182
same,IL-7 relative expression (z-transformation),[1]; Day 14,1.313
same,IL-8 relative expression (z-transformation),[1]; Day 14,0.7194
same,IL-15 relative expression (z-transformation),[1]; Day 14,1.407
same,IP-10 relative expression (z-transformation),[1]; Day 14,0.8479
same,MCP-1 relative expression (z-transformation),[1]; Day 14,2.011
same,MCP-3 relative expression (z-transformation),[1]; Day 14,1.298
same,MDC relative expression (z-transformation),[1]; Day 14,0.1904
same,MIP-1a relative expression (z-transformation),[1]; Day 14,0.03023
same,MIP-1b relative expression (z-transformation),[1]; Day 14,0.8239
same,TNFa relative expression (z-transformation),[1]; Day 14,0.4054
same,VEGF relative expression (z-transformation),[1]; Day 14,-1.095
same,IP-10 production,[1]; day 15,biggest increase
same,Fibronectin (Fold change in cytokine production compared to control),"[2]; Day 6, high NPC",1.389
same,Pro-collagen 1 (Fold change in cytokine production compared to control),"[2]; Day 6, high NPC",2.273
same,TIMP-1 (Fold change in cytokine production compared to control),"[2]; Day 6, high NPC",1.299
same,Fibronectin (Fold change in cytokine production compared to control),"[2]; Day 11, high NPC",0.7381
same,Pro-collagen 1 (Fold change in cytokine production compared to control),"[2]; Day 11, high NPC",1.299
same,TIMP-1 (Fold change in cytokine production compared to control),"[2]; Day 11, high NPC",0.1393
same,Fibronectin (Fold change in cytokine production compared to control),"[2]; Day 14, high NPC",0.7006
same,Pro-collagen 1 (Fold change in cytokine production compared to control),"[2]; Day 14, high NPC",0.7125
same,TIMP-1 (Fold change in cytokine production compared to control),"[2]; Day 14, high NPC",0.2326
